According to PubChem BioAssay (NCI):
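Tested at 5 concentrations; 48 h exposure; 96-well plates; endpoints linearly interpolated, else capped at highest concentration. Here, GI50 denotes the concentration required for 50% inhibition of growth. TGI is the concentration that stops growth completely.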

Assays:
Assay in all cases: growth of human tumour cells (NCI), 48 h
TK-10 renal = tested on: TK-10 renal
HOP-92 NSCLC = tested on: HOP-92 NSCLC
SNB-19 CNS = tested on: SNB-19 CNS
T-47D breast = tested on: T-47D breast
SF-268 CNS = tested on: SF-268 CNS
UACC-62 melanoma = tested on: UACC-62 melanoma
HOP-62 NSCLC = tested on: HOP-62 NSCLC
EKVX NSCLC = tested on: EKVX NSCLC
OVCAR-5 ovarian = tested on: OVCAR-5 ovarian
SW-620 colon = tested on: SW-620 colon

SMILES | GI50 (TK-10 renal) [µM] | TGI (TK-10 renal) [µM] | GI50 (HOP-92 NSCLC) [µM] | TGI (HOP-92 NSCLC) [µM] | GI50 (SNB-19 CNS) [µM] | TGI (SNB-19 CNS) [µM] | GI50 (T-47D breast) [µM] | TGI (T-47D breast) [µM] | GI50 (SF-268 CNS) [µM] | TGI (SF-268 CNS) [µM] | GI50 (UACC-62 melanoma) [µM] | TGI (UACC-62 melanoma) [µM] | GI50 (HOP-62 NSCLC) [µM] | TGI (HOP-62 NSCLC) [µM] | GI50 (EKVX NSCLC) [µM] | TGI (EKVX NSCLC) [µM] | GI50 (OVCAR-5 ovarian) [µM] | TGI (OVCAR-5 ovarian) [µM] | GI50 (SW-620 colon) [µM] | TGI (SW-620 colon) [µM]
O=c1cc(N/N=C/c2ccc(F)cc2)c2cc(Cl)ccc2[nH]1 | 47.1 | > 100 | 14 | 45.9 | 23.5 | > 100 | 18.6 | > 100 | 33.6 | > 100 | 16.7 | > 100 | 20.7 | > 100 | 16.8 | > 100 | 21.6 | 58.9 | 26.8 | > 100
CC1=Nc2ccccc2/C1=C\c1c(C)[nH]c2ccccc12 |  | 32.2 |  | 17.4 |  | 35.5 |  | 29.4 |  | 28.6 |  | 25.1 |  | 69.7 |  | 29.7 |  | 50.9 |  | 28.5
CSCCCNC(=O)c1ccc2c(c1)/C(=C/c1[nH]c(C)cc1C)C(=O)N2 | 6.44 | > 100 | 1.03 | > 100 | 25.6 | > 100 | 0.465 | > 100 | 1.98 | > 100 | 0.687 | > 100 | 0.286 | > 100 |  |  | 3.85 | > 100 | 0.846 | > 100
O=c1[nH]c2nc(NC3CCOCC3)ncc2cc1Oc1ccc(F)cc1F | > 25 | > 25 | > 25 | > 25 | > 25 | > 25 | > 25 | > 25 | > 25 | > 25 | > 25 | > 25 | > 25 | > 25 |  |  | > 25 | > 25 | > 25 | > 25
N.N.N.N.N.O=[N+]([O-])[O-].[Co+3].[O-][Cl+3]([O-])([O-])[O-] | > 100 | > 100 | > 100 | > 100 | > 100 | > 100 |  |  | > 100 | > 100 | > 100 | > 100 | > 100 | > 100 | > 100 | > 100 | > 100 | > 100 | > 100 | > 100
COc1ccc(C(=O)NNc2nc(Cl)nc(N3CCN(C(c4ccccc4)c4ccccc4)CC3)n2)cc1 | > 100 | > 100 | 1.61 | 3.55 | 1.84 | 3.54 | 64 | > 100 | 2.01 | 4.31 | 1.82 | 3.54 | 2.97 | 10.7 | 3.43 | 14.8 | 13.2 | 33.2 |  | 
C=CC(=O)Nc1cc(N2CCN(CC)CC2)ccc1Nc1cc(N(C)C(=O)Nc2c(Cl)c(OC)cc(OC)c2Cl)ncn1 | 10.6 | 26 | 4.94 | 21.7 | 5.05 | 17.5 | 3.3 | 26.4 | 5.53 | 27.7 | 12.8 | 27.3 | 11.9 | 28.8 | 12.4 | 35.9 | 19.4 | 51.2 | 3.29 | 11.7
O=C(Oc1ccc(CO[N+](=O)[O-])cc1)c1ccccc1 | 0.173 | 0.334 | 0.151 | 0.313 | 0.202 | 0.706 | 0.137 | 0.323 | 0.167 | 0.317 | 0.169 | 0.396 | 0.161 | 0.316 | 0.407 | 1.59 | 0.172 | 0.316 | 0.103 | 0.251
Cc1cc(O)c(C2=NN(c3ccc(S(N)(=O)=O)cc3)C(c3ccc(Cl)cc3)C2)c(C)c1Cl (stereo not drawn) | 4.48 | 18.8 | 3.74 | 17.6 | 12.4 | 24.9 | 2.93 | 14.9 | 5.76 | 19.4 | 3.49 | 15.1 | 10.4 | 23.3 | 1.88 | 13.6 | 12.3 | 24.7 | 3.72 | 15.2
CCOC(=O)N1CCc2cc(OC)c(OC)cc2/C1=C\c1ccc(OC)c(OC)c1 |  | 73.9 |  | 56.1 |  | > 100 |  |  |  | > 100 |  | 63.4 |  | > 100 |  | 89.2 |  | > 100 |  | > 100
Cc1cc(N=C2C=C(Br)C(=O)C(Br)=C2)cc(CN(CC(=O)O)CC(=O)O)c1O |  |  |  |  |  | > 100 |  | > 100 |  | > 100 |  | > 100 |  | > 100 |  | > 100 |  | > 100 |  | > 100
OCc1ccc(-c2cscc2-c2ccc(CO)o2)o1 | > 100 | > 100 | 16.1 | > 94 | > 100 | > 100 | 1.46 | 9.65 | > 100 | > 100 | 0.435 | 2.2 | 3.55 | 37.6 |  |  | 0.216 | 1.97 | 7.14 | > 100
C1=C2CCCC3=Cc4ccccc4OC23Oc2ccccc21 | 9.87 | > 100 |  |  | 4.01 | > 100 | 2.46 | > 100 | 4.74 | > 100 | 2.91 | 82.5 | 3.8 | > 100 | 5.49 | > 100 | 3.46 | > 100 | 3.36 | 53.6
C#Cc1nc2ccccc2c(=O)[nH]1 | 0.546 | 11.2 | 1.14 | 2.61 | 4.19 | 18 | 1.36 | 3.6 | 1.54 | 4.57 | 0.286 | 1.03 | 1.95 | 5.64 |  |  | 1.04 | 2.59 | 0.291 | 1.12
